In EP0650958A1, “Hydrazones of indane-triones and their application in therapy” (LABORATOIRE INNOTHERA Société Anonyme, priority 1993, dated 1995):
Where a name gives a salt, the structure may show the parent alone.

Legend:
[1] = tested on: hyperperméabilité vasculaire induite par le zymosan; experiment: Vascular hyperpermeability induced by zymosan (extravasation of albumin or Evans blue); format: in vivo; conditions: oral administration of 1-20 mg/kg
Source text: (§1) Pour l'étude in vivo, ils sont administrés par voie intra-veineuse sous forme de solution aqueuse pure, par voie intrapéritonéale sous forme de solution aqueuse contenant ou non du DMSO ou par voie orale en solution ou en suspension dans la carboxyméthylcellulose ou dans une solution aqueuse composée contenant du Tween^(R) et dans certains cas du DMSO (diméthylsulfoxyde).
La perméabilité vasculaire est étudiée in vivo et in vitro par la mesure de l'extravasation d'albumine ou de colorant liant l'albumine (Bleu Evans). In vivo, l'hyperperméabilité est induite par l'injection d'une solution d'histamine, de bradykinine ou de zymosan. Les modèles in vitro permettent de réaliser des hyperpressions (sur un territoire vasculaire isolé) et/ou des réactions vasculaires inflammatoires.
A titre illustratif, les composés des exemples 1, 3, 6 et 9 inhibent l'hyperperméabilité vasculaire induite par le zymosan après administration orale de 1-20 mg/kg.

veines saphènes de lapin = experiment: Contraction of isolated rabbit saphenous vein rings produced by KCl (depolarisation); conditions: for augmentent les contractions des veines saphènes de lapin produites par le KCl: KCl 40 mM, compounds 10 nM à 30 mM; for EC50: increase of contractions produced by KCl 40 mM, read-out: DE₅₀
Source text: (§2) Pour l'étude in vitro, les composés sont solubilisés en solution aqueuse pure ou contenant du DMSO ou de l'alcool.
L'effet contractile est mesuré in vitro : • par la force de contraction développée par des anneaux vasculaires quiescents ou stimulés (soit électriquement soit par des agents physiologiques) et maintenus dans des conditions isométriques, • par la pression développée par des réseaux vasculaires perfusés à débit constant.
Les composés de l'invention et leurs sels éventuels augmentent la contraction des veines saphènes animales produite par la noradrénaline et la dépolarisation (solution hyperpotassique) sans affecter, dans la majorité des cas, les réponses contractiles artérielles. A titre illustratif, les composés des exemples 2, 3, 4, 7, et 9 (10 nM à 30 mM) augmentent de plus de 40 % (DE₅₀ ± 0,3 microM) les contractions des veines saphènes de lapin produites par le KCl (40 mM).

pleurésie chez le rat = experiment: Carrageenan-induced pleurisy (oedema and leukocyte migration); format: in vivo; conditions: 5 mg/kg i.p. given twice, 6 hours after carrageenan injection into the pleural cavity
Source text: as §1
L'activité antiinflammatoire est démontrée par la mesure de l'inhibition de l'oedème et de la migration leucocytaire après induction d'une pleurésie chez le rat par injection de carragénine dans la cavité pleurale (Almeida et col., J. Pharmacol. Exp. Therap., 1980, 214 : 74).
Le composé des exemples 3 et 4 administrés deux fois en i.p. à la dose de 5 mg/kg inhibent l'oedème et la migration leucocytaire dans la cavité pleurale, 6 heures après injection de carragénine dans le modèle de la pleurésie chez le rat.

[2] = Free radical scavenging with DPPH as stable free radical; format: physicochemical; conditions: DPPH model, in vitro
Source text: as §2
L'effet "piégeur de radicaux libres" global est étudié in vitro par un modèle utilisant le 1,1-diphényl-2-picrylhydrazyl (DPPH) comme radical libre stable, méthode dérivée de celle décrite par Lamaison et col., Plantes Médic. et Phytothérapie, XXII, 1988, 231-234.

Row | SMILES | hyperperméabilité vasculaire induite par le zymosan [1] | augmentent les contractions des veines saphènes de lapin produites par le KCl (veines saphènes de lapin) | EC50 (veines saphènes de lapin) | migration leucocytaire dans la cavité pleurale (pleurésie chez le rat) | oedème (pleurésie chez le rat) | effet antiradicalaire [2]
1 | O=C(NN=c1c(=O)c2ccccc2c1=O)n1cccc1 [exemple 1, 2.3-Dihydro-1.3-dioxo-2-(pyrrol-1-yl-carbonylhydrazono)-1H-indene] | inhibent |  |  |  |  | 
2 | O=C(NN=c1c(=O)c2ccccc2c1=O)c1cccnc1 [exemple 2, 2.3-Dihydro-1.3-dioxo-2-[(3-pyridyl)carbonylhydrazono]-1H-indene, chlorhydrate] |  | > 40% | ~300 nM |  |  | 
3 | Nc1ccc(C(=O)NN=c2c(=O)c3ccccc3c2=O)cc1 [exemple 3, 2-(4-Aminophenylcarbonylhydrazono)-2.3-dihydro-1.3-dioxo-1H-indene, chlorhydrate] | inhibent | > 40% | ~300 nM | inhibent | inhibent | 
4 | O=C(NN=c1c(=O)c2ccccc2c1=O)c1cccnc1 [exemple 6, 2.3-Dihydro-1.3-dioxo-2-[(3-pyridyl)carbonylhydrazono]-1H-indene, maleate] | inhibent |  |  |  |  | présentent un effet antiradicalaire
